From ChEMBL document CHEMBL3352249, “Novel indolizine derivatives with unprecedented inhibitory activity on human farnesyltransferase” (Bioorg Med Chem Lett, 2014)
pIC50: −log10 of the molar value.

Legend:
[1] = molecular target: T1, Protein farnesyltransferase (Homo sapiens, UniProt P49354+P49356); experiment: Inhibition of human recombinant farnesyltransferase using Dansyl-GCVLS peptide as substrate after 15 mins by fluorescence assay
[2] = molecular target: T1, Protein farnesyltransferase; experiment: Inhibition of human recombinant farnesyltransferase using Dansyl-GCVLS peptide as substrate at 100 uM after 15 mins by fluorescence assay

| SMILES | pIC50 [1] | inhibition [2] [%] |
| --- | --- | --- |
| C#CCNC(=O)c1cc(C(=O)c2ccccc2)n2c(C)cccc12 | 4.24 | 74 |
| Cc1ccn2c(C(=O)c3ccc(Cl)cc3)cc(C(=O)O)c2c1 | – | 0 |
| Cc1ccn2c(C(=O)c3ccccc3)cc(C(=O)O)c2c1 | 4.14 | 100 |
| C#CCOC(=O)c1cc(C(=O)c2ccccc2)n2ccc(C)cc12 | – | 72 |
| C#CCOC(=O)c1cc(C(=O)c2ccccc2)n2c(C)cccc12 | 4.68 | 93 |
| C#CCNC(=O)c1cc(C(=O)c2ccccc2)n2ccc(C)cc12 | 4.82 | 100 |
| O=C(O)c1cc(C(=O)c2ccc(Br)cc2)n2ccccc12 | 4.71 | 100 |
| CCCCCCCCCCCCCC/C(C(=O)O)=C(\C)C(=O)O [CHAETOMELLIC ACID A] | 6.74 | 100 |
| Cc1cccc2c(C(=O)O)cc(C(=O)c3ccccc3)n12 | – | 48 |
| C#CCOC(=O)c1cc(C(=O)c2ccc(Br)cc2)n2c(C)cccc12 | 5.89 | 100 |
| C#CCNC(=O)c1cc(C(=O)c2ccc(Cl)cc2)n2c(C)cccc12 | 4.83 | 97 |
| O=C(O)c1cc(C(=O)c2ccccc2)n2ccccc12 | 4.71 | 100 |
| C#CCNC(=O)c1cc(C(=O)c2ccc(Br)cc2)n2c(C)cccc12 | 4.94 | 90 |
| C#CCNC(=O)c1cc(C(=O)c2ccccc2)n2ccccc12 | 4.66 | 100 |
| Cc1cccc2c(C(=O)O)cc(C(=O)c3ccc(Br)cc3)n12 | 4.83 | 91 |
| Cc1ccn2c(C(=O)c3ccc(Br)cc3)cc(C(=O)O)c2c1 | – | 0 |
| Cc1cccc2c(C(=O)O)cc(C(=O)c3ccc(Cl)cc3)n12 | 4.49 | 79 |

More lines, now with the values ahead:

| pIC50 [1] | inhibition [2] [%] | SMILES |
| --- | --- | --- |
| 4.68 | 100 | O=C(O)c1cc(C(=O)c2ccc(Cl)cc2)n2ccccc12 |
| 4.68 | 97 | C#CCCOC(=O)c1cc(C(=O)c2ccc(Cl)cc2)n2c(C)cccc12 |
| 5.36 | 100 | C#CCNC(=O)c1cc(C(=O)c2ccc(Br)cc2)n2ccccc12 |
| – | 0 | C#CCOC(=O)c1cc(C(=O)c2ccc(Cl)cc2)n2ccc(C)cc12 |
| 5.23 | 94 | C#CCNC(=O)c1cc(C(=O)c2ccc(Cl)cc2)n2ccccc12 |
| – | 68 | C#CCCOC(=O)c1cc(C(=O)c2ccc(Br)cc2)n2ccc(C)cc12 |
| – | 0 | C#CCCOC(=O)c1cc(C(=O)c2ccc(Cl)cc2)n2ccccc12 |
| – | 54 | C#CCOC(=O)c1cc(C(=O)c2ccc(Cl)cc2)n2ccccc12 |
| – | 0 | C#CCCOC(=O)c1cc(C(=O)c2ccc(Br)cc2)n2ccccc12 |
| – | 0 | C#CCCOC(=O)c1cc(C(=O)c2ccc(Cl)cc2)n2ccc(C)cc12 |
| – | 0 | C#CCCOC(=O)c1cc(C(=O)c2ccccc2)n2ccc(C)cc12 |
| 5.59 | 100 | C#CCOC(=O)c1cc(C(=O)c2ccc(Cl)cc2)n2c(C)cccc12 |
| 5.66 | 100 | C#CCCOC(=O)c1cc(C(=O)c2ccc(Br)cc2)n2c(C)cccc12 |
| – | 61 | C#CCCOC(=O)c1cc(C(=O)c2ccccc2)n2ccccc12 |
| 4.84 | 100 | C#CCOC(=O)c1cc(C(=O)c2ccccc2)n2ccccc12 |
| 5.14 | 94 | C#CCCOC(=O)c1cc(C(=O)c2ccccc2)n2c(C)cccc12 |
